Experimental data taken from patent US20150143553A1, “Methods And Compositions Comprising A Drosophila Model Of Amyotrophic Lateral Sclerosis” (priority 2013, published 2015).
Counter-ions that a name gives are not always drawn.

Tested on: Drosophila larvae expressing wild-type TDP-43 in motor neurons
Assay: Drug screen: rescue of lethality caused by wild-type TDP-43 expression in motor neurons (D42 Gal4)
Assay type: in vivo
Conditions: transgene WT2
Source text: […] Larvae expressing TDP-43 (wild type or mutant, as shown) are raised on drug containing food.
[…] Larvae expressing TDP-43 (wt or mutant) were raised on drug containing food.
Using a Drosophila model of ALS based on TDP-43 that recapitulates several aspects of the disease pathophysiology (33, 35), a drug screen aimed at identifying FDA approved compounds with neuroprotective potential in vivo were designed (FIG. 37A). […] This phenotype was used to screen for drug candidates with therapeutic potential as determined by their ability to rescue pupal lethality and produce viable adults with extended wings (FIG. 37A). […]
UAS TDP-43 males were crossed with D42-Gal4 female virgins on fly food containing either DMSO or pioglitazone. For DMSO controls, the same volume of DMSO as the corresponding drug concentration was added. Bromophenol blue was added to a final concentration of approximately 0.02% to ensure homogeneity. Crosses were made on drug food with 3 female virgins and 2 males in each vial, and were maintained at 25° C. unless noted. The parents were discarded after 5-7 days then the vials were screened for adult progeny with straight wings from day 14 to day 25. All adults were screened for TDP-43 expression by visualizing the YFP tag. Total number of pupae was counted on day 25. Percent survival was calculated using the formula (total number of straight-winged adults/total number of pupae)×100. All experiments were performed in triplicate.

Molecule | Preliminary rescue result: adults with normal wings (30 μM in fly food) | Preliminary rescue result: adults with normal wings (50 μM in fly food)
CC(C)(Oc1ccc(Cl)cc1)C(=O)O [Clofibric Acid] | 2 Adult Normal Wings Adults | –
CCCNC(C)(C)COC(=O)c1ccccc1 [Meprylcaine HCl] | 1 Adult Normal Wings Adults | –
C[C@H](CCC(=O)O)[C@H]1CC[C@H]2[C@@H]3[C@@H](O)C[C@@H]4C[C@H](O)CC[C@]4(C)[C@H]3CC[C@]12C [Urosiol] | 2 Adult Normal Wings Adults | –
C[C@H](CCC(=O)O)[C@H]1CC[C@H]2[C@@H]3CC[C@@H]4C[C@H](O)CC[C@]4(C)[C@H]3CC[C@]12C [Lithocholic Acid] | 7 Adult Normal Wings Adults | –
CC1(C)[C@H](C(=O)O)N2C(=O)C[C@H]2S1(=O)=O [Sulbactam] | 1 Adult Normal Wings Adults | –
O=c1cc(-c2ccc(O)c(O)c2)oc2cc(O)cc(O)c12 [Luteolin] | 1 Adult Normal Wings Adults | –
CC1(C)NC(=O)N(c2ccc([N+](=O)[O-])c(C(F)(F)F)c2)C1=O [Nilutamide] | 11 Adult Normal Wings Adults | –
COc1ccccc1N1CCN(CCCNc2cc(=O)n(C)c(=O)n2C)CC1 [Urapidil Hydrochloride] | 1 Adult Normal Wings Adults | –
COc1cc([C@@H]2c3cc4c(cc3[C@H](O)[C@H]3COC(=O)[C@H]23)OCO4)cc(OC)c1OC [Podophyllotoxin] | 8 Adult Normal Wings Adults | –
CC(=O)OCC(=O)[C@@]12OC3(CCCC3)O[C@@H]1C[C@H]1[C@@H]3CCC4=CC(=O)C=C[C@]4(C)[C@@]3(F)[C@@H](O)C[C@@]12C [Amcinonide] | 1/1 | –
CC1CC(OC(=O)C(O)c2ccccc2)CC(C)(C)N1C (centres unmarked) [Eucatropine HCl] | 1 Adult Normal Wings Adults | –
CCC1(c2ccccc2)NC(=O)N(C)C1=O (centres unmarked) [Mephenytoin] | 2/1 | –
CCOC(=O)[C@H](CCc1ccccc1)N[C@@H](C)C(=O)N1[C@H](C(=O)O)C[C@@H]2CCC[C@@H]21 [Ramipril] | 1 Adult Normal Wings Adults | –
CC(C)c1c(C(=O)Nc2ccccc2)c(-c2ccccc2)c(-c2ccc(F)cc2)n1CC[C@@H](O)C[C@@H](O)CC(=O)O [Atorvastatin] | 1 Adult Normal Wings Adults | –
CC(C(=O)O)c1cccc(C(=O)c2ccccc2)c1 (centres unmarked) [Ketoprofen] | – | 1 Adult Normal Wings Adults
CCCCOc1cc(C(=O)NCCN(CC)CC)c2ccccc2n1 [Dibucaine] | – | 1 Adult Normal Wings Adults
O=C(O)Cc1ccc(-c2ccccc2)cc1 [Felbinac] | 1 Adult Normal Wings Adults | –
NS(=O)(=O)c1cc(Cl)c(Cl)c(S(N)(=O)=O)c1 [Dichlorphenamide] | 2 Adult Normal Wings Adults | –
CCCc1cc(C(N)=S)ccn1 [Prothionamide] | 1 Adult Normal Wings Adults | –
CN[C@@H]1[C@@H](O)[C@@H](O[C@@H]2[C@@H](O)[C@H](O[C@H]3OC(CN)=CC[C@H]3N)[C@@H](N)C[C@H]2N)OC[C@]1(C)O [Sisomicin Sulfate] | – | 1 Adult Normal Wings Adults
C#C[C@]1(O)CC[C@H]2[C@@H]3CCc4cc(OC)ccc4[C@H]3CC[C@@]21C [Ethynyletradiol 3-Methyl Ether] | 5 Adult Normal Wings Adults | –

Molecule | Preliminary rescue result: adults with normal wings (30 μM in fly food) | Preliminary rescue result: adults with normal wings (50 μM in fly food)
Cc1ccc(-c2cc(C(F)(F)F)nn2-c2ccc(S(N)(=O)=O)cc2)cc1 [Celecoxib] | – | 1 Adult Normal Wings Adults
CC(=O)Oc1ccccc1C(=O)O [Acetylsalicylic Acid] | 1/1 | –
CCCCOc1cc(C(=O)OCCN(CC)CC)ccc1N [Benoxinate Hydrochloride] | – | 1 Adult Normal Wings Adults
OC(CCN1CCCC1)(c1ccccc1)C1CCCCC1 (centres unmarked) [Procyclidine HCL] | 1 Adult Normal Wings Adults | –
CO[C@@]1(NC(=O)Cc2cccs2)C(=O)N2C(C(=O)O)=C(COC(N)=O)CS[C@@H]21 [Cefoxitin Sodium Salt] | 1 Adult Normal Wings Adults | –
COc1ccc2[nH]cc(CCNC(C)=O)c2c1 [Melatonin] | – | 4 Adults Normal Wings
CCNCC(O)c1cccc(O)c1.Cl (centres unmarked) [Etilifrine Hydrochloride] | 1 Adult Normal Wing Adults | –
NC1CCN(c2nc3c(cc2F)c(=O)c(C(=O)O)cn3-c2ccc(F)cc2F)C1 (centres unmarked) [Tosufloxacin Hydrochloride] | – | 3 Adult Normal Wings Adults
CCC(=O)OCC(=O)[C@@]1(OC(=O)CC)[C@H](C)C[C@H]2[C@H]3[C@H]([C@@H](O)C[C@@]21C)[C@@]1(C)C=CC(=O)C=C1C[C@H]3Cl [Alclometasone Dipropionate] | 2 Adult Normal Wings Adults | –
CC1(C)S[C@@H]2[C@H](NC(=O)[C@H](C(=O)[O-])c3ccsc3)C(=O)N2[C@H]1C(=O)[O-].[Na+].[Na+] [Ticarcillin Sodiim] | 1 Adult Normal Wings Adults | –
COc1ccc2c(c1)C(=O)N(CCc1ccc(S(=O)(=O)NC(=O)NC3CCCCC3)cc1)C(=O)C2(C)C [Gliquidone] | 7 Adult Normal Wings Adults | –
CCN(CC)CCOC(=O)C(c1ccccc1)C1CCCCC1 (centres unmarked) [Drofenine HCl] | 1 Adult Normal Wings Adults | –
COc1cc(NC(C)CCCN)c2ncccc2c1 (centres unmarked) [Primaquine Diphosphate] | – | 1 Adult Normal Wings Adults
COC(c1ccccc1)(c1ccccc1)[C@H](Oc1nc(C)cc(C)n1)C(=O)O [Amrisentan] | – | 1 Adult Normal Wings Adults
CC(C)NCC(O)COc1ccc(COCCOC(C)C)cc1.CC(C)NCC(O)COc1ccc(COCCOC(C)C)cc1.O=C(O)/C=C/C(=O)O (centres unmarked) [Beoprolol Fumarate] | – | 1 Adult Normal Wings Adults
Thioproperazine Dimesylate | – | 1 Adult Normal Wings Adults
Clc1ccc(C(OCCN2CCCCC2)c2ccccc2)cc1 (centres unmarked) [Cloperastine HCl] | 1 Adult Normal Wings Adults | –
Oc1c(Cl)cc(Cl)c(Cl)c1Cc1c(O)c(Cl)cc(Cl)c1Cl [Hexachlorophene] | 1 Adult Normal Wings Adults | –
CN(C)CCOc1ccc(/C(=C(/CCCl)c2ccccc2)c2ccccc2)cc1 [Toremifene] | 1 Adult Normal Wings Adults | –
Cc1nccn1CC1CCc2c(c3ccccc3n2C)C1=O (centres unmarked) [Ondansetron Hcl] | 1 Adult Normal Wings Adults | –
